Earlier results as cited in PMC3237771 (Biomacromolecules, 2011).

Settings: aqueous buffer; no reference given

N=c1c[n+](N2CCOCC2)[n-]o1 [SIN-1, 3-morpholinosydnonimine]
Half-life in aqueous environments: < 10 h
